The source of these data is US7723364B2, “N-[2-(2-pyridinyl) ethyl]benzamide compounds and their use as fungicides” (Bayer Cropscience SA, priority 2003, dated 2010).

The structures appear in SMILES notation.

In one experiment the test system is Alternaria brassicae. Briefly: In vivo test on Alternaria brassicae (leaf spot of crucifers) on radish plants. The conditions noted are these: for pest or weed control at 330 ppm: Alternaria brassicae, dose of 330 ppm, radish plants sprayed 24 hours before contamination, grading 6 to 7 days after contamination vs control plants, read-out: good (at least 50%) or total protection; for effectiveness on Alternaria brassicae: comparison compounds of WO 01/11965, 330 ppm. How it is done: In Vivo Test on Alternaria brassicae (Leaf Spot of Crucifers)
(§1) The active ingredient tested is prepared by potter homogenisation in a concentrated suspension type formulation at 100 g/l. This suspension is then diluted with water to obtain the desired active material concentration.
Radish plants (Pernot variety) in starter cups, sown on a 50/50 peat soil-pozzolana substrate and grown at 18-20° C., are treated at the cotyledon stage by spraying with the aqueous suspension described above.
Plants, used as controls, are treated with an aqueous solution not containing the active material.
After 24 hours, the plants are contaminated by spraying them with an aqueous suspension of Alternaria brassicae spores (40,000 spores per cm^3). The spores are collected from a 12 to 13 days-old culture.
The contaminated radish plants are incubated for 6-7 days at about 18° C., under a humid atmosphere.
Grading is carried out 6 to 7 days after the contamination, in comparison with the control plants.

Another experiment concerns Botrytis cinerea. Briefly: In vivo test on Botrytis cinerea (cucumber grey mould). Conditions: for pest or weed control at 330 ppm: Botrytis cinerea, dose of 330 ppm, cucumber plants sprayed 24 hours before contamination, grading 5/7 days after contamination vs control plants, read-out: good (at least 50%) or total protection; for effectiveness on Botrytis cinerea: comparison compounds of WO 01/11965, 330 ppm. How it is done:
In Vivo Test on Botrytis cinerea (Cucumber Grey Mould)
as §1
Cucumber plants (Marketer variety) in starter cups, sown on a 50/50 peat soil-pozzolana substrate and grown at 18-20° C., are treated at the cotyledon Z11 stage by spraying with the aqueous suspension described above. Plants, used as controls, are treated with an aqueous solution not containing the active material.
After 24 hours, the plants are contaminated by depositing drops of an aqueous suspension of Botrytis cinerea spores (150,000 spores per ml) on upper surface of the leaves. The spores are collected from a 15-day-old culture and are suspended in a nutrient solution composed of:
The contaminated cucumber plants are settled for 5/7 days in a climatic room at 15-11° C. (day/night) and at 80% relative humidity.
Grading is carried out 5/7 days after the contamination, in comparison with the control plants. Under these conditions, good (at least 50%) or total protection is observed at a dose of 330 ppm with the following compounds: 1, 2, 3, 4, 5, 6, 9, 10, 13, 18, 21, 22, 23, 25, 26, 27, 28, 29, 32, 34, 35, 38, 40, 43, 44, 45, 46, 47, 50, 51, 52, 53, 57 and 62.

The subject of a further experiment is Pyrenophora teres. In words: In vivo test on Pyrenophora teres (barley net blotch). The conditions noted are these: 288 h, dose of 330 ppm, barley plants sprayed 24 hours before contamination, grading 12 days after contamination vs control plants, read-out: good (at least 50%) or total protection. As for the experimental part:
In Vivo Test on Pyrenophora teres (Barley Net Blotch)
as §1
Barley plants (Express variety) in starter cups, sown on a 50/50 peat soil-pozzolana substrate and grown at 12° C., are treated at the 1-leaf stage (10 cm tall) by spraying with the aqueous suspension described above. Plants, used as controls, are treated with an aqueous solution not containing the active material.
After 24 hours, the plants are contaminated by spraying them with an aqueous suspension of Pyrenophora teres spores (12,000 spores per ml). The spores are collected from a 12-day-old culture. The contaminated barley plants are incubated for 24 hours at about 20° C. and at 100% relative humidity, and then for 12 days at 80% relative humidity.

`O=C(NCCc1ncc(Cl)cc1Cl)c1ccccc1Cl` [Compound 2]: the pest or weed control at 330 ppm in the experiment with Alternaria brassicae, in the experiment with Botrytis cinerea and in the experiment with Pyrenophora teres was no less than 50% each time.

Take `CC(CNC(=O)c1cc(F)ccc1Cl)c1ccc(Cl)cn1` (stereo not shown) [Compound 7]: in the experiment with Alternaria brassicae, the pest or weed control at 330 ppm was no less than 50%.

For the compound `Cc1ccc(CCNC(=O)c2ccccc2I)nc1` [Compound 14, N-[2-(5-methyl-2-pyridinyl)ethyl]-2-(iodo)benzamide], the pest or weed control at 330 ppm in the experiment with Alternaria brassicae is no less than 50%.

Take `O=C(NCCc1ccc(Cl)cn1)c1ccccc1C(F)(F)F` [Compound 20]: in the experiment with Alternaria brassicae, the pest or weed control at 330 ppm is no less than 50%.

On to `O=C(NCCc1ncc(Cl)cc1F)c1ccccc1I` [Compound 21], for which the pest or weed control at 330 ppm in the experiment with Alternaria brassicae, in the experiment on Botrytis cinerea and in the experiment on Pyrenophora teres was no less than 50% each time.

`O=C(NCCc1nc(Cl)c(Cl)cc1Cl)c1ccccc1I` [Compound 22]: the pest or weed control at 330 ppm in the experiment with Botrytis cinerea is no less than 50%.

As to `O=C(NCCc1nc(Cl)c(Cl)cc1Cl)c1ccccc1C(F)(F)F` [Compound 23], the pest or weed control at 330 ppm in the experiment with Botrytis cinerea is no less than 50%.

`O=C(NCCc1ccc(Cl)cn1)c1ccccc1I` [Compound 24]: in the experiment on Alternaria brassicae, the pest or weed control at 330 ppm is no less than 50%.

On to `O=C(NCCc1ncc(Cl)cc1F)c1ccccc1C(F)F` [Compound 29], for which, in the experiment with Botrytis cinerea, the pest or weed control at 330 ppm was no less than 50%.

Turning to `O=C(NCCc1nc(F)c(Cl)cc1Cl)c1ccccc1I` [Compound 34], the pest or weed control at 330 ppm in the experiment on Alternaria brassicae, with Botrytis cinerea and in the experiment with Pyrenophora teres was no less than 50% in each case.

As for `O=C(NCCc1nc(Cl)ccc1Cl)c1ccccc1C(F)(F)F` [Compound 35], the pest or weed control at 330 ppm in the experiment with Alternaria brassicae, in the experiment with Botrytis cinerea and in the experiment on Pyrenophora teres was no less than 50% throughout.

Turning to `O=C(NCCc1nc(Cl)ccc1Cl)c1ccccc1I` [Compound 36], the pest or weed control at 330 ppm with Alternaria brassicae and in the experiment on Pyrenophora teres was no less than 50% each time.

In the case of `O=C(NCCc1nc(Cl)ccc1Cl)c1ccccc1Br` [Compound 37], the pest or weed control at 330 ppm in the experiment with Alternaria brassicae and in the experiment on Pyrenophora teres was no less than 50% each time.

On to `O=C(NCCc1ccc(Cl)cn1)c1ccccc1Br` [Compound 39], for which the pest or weed control at 330 ppm in the experiment with Pyrenophora teres was no less than 50%.

Regarding `O=C(NCCc1ncc(Cl)cc1Br)c1ccccc1I` [Compound 40], the pest or weed control at 330 ppm with Alternaria brassicae, in the experiment with Botrytis cinerea and in the experiment with Pyrenophora teres was no less than 50% each time.

With `O=C(NCCc1nc(Cl)ccc1Cl)c1ccccc1C(F)F` [Compound 41], the pest or weed control at 330 ppm with Alternaria brassicae and with Pyrenophora teres was no less than 50% in each case.

`Cc1c(F)c(F)nc(CCNC(=O)c2ccccc2C(F)(F)F)c1F` [Compound 42]: in the experiment on Pyrenophora teres, the pest or weed control at 330 ppm was no less than 50%.

As for `O=C(NCCc1nc(F)c(F)cc1F)c1ccccc1Br` [Compound 47], the pest or weed control at 330 ppm in the experiment with Alternaria brassicae, in the experiment on Botrytis cinerea and with Pyrenophora teres was no less than 50% in each case.

Regarding `O=C(NCCc1nc(F)c(F)cc1F)c1ccccc1Cl` [Compound 48], the pest or weed control at 330 ppm in the experiment with Pyrenophora teres is no less than 50%.

Consider `Cc1ccccc1C(=O)NCCc1nc(F)c(F)c(C)c1F` [Compound 49], for which the pest or weed control at 330 ppm with Alternaria brassicae and with Pyrenophora teres was no less than 50% throughout.

`O=C(NCCc1ncc(Br)cc1Cl)c1ccccc1Br` [Compound 52]: the pest or weed control at 330 ppm in the experiment with Alternaria brassicae, in the experiment with Botrytis cinerea and in the experiment on Pyrenophora teres was no less than 50% in each case.

Consider `Cc1ccc(Cl)c(CCNC(=O)c2ccccc2C(F)(F)F)n1` [Compound 56], for which the pest or weed control at 330 ppm with Alternaria brassicae and in the experiment with Pyrenophora teres was no less than 50% each time.

For the compound `O=C(NCCc1nc(F)c(Cl)cc1Cl)c1ccccc1C(F)(F)F` [Compound 57], the pest or weed control at 330 ppm in the experiment with Alternaria brassicae, in the experiment with Botrytis cinerea and in the experiment with Pyrenophora teres was no less than 50% throughout.

As for `O=C(NCCc1nc(F)c(Cl)cc1Cl)c1ccccc1Br` [Compound 58], the pest or weed control at 330 ppm in the experiment on Alternaria brassicae and in the experiment on Pyrenophora teres was no less than 50% in each case.

For the compound `O=C(NCCc1nc(F)c(Cl)cc1Cl)c1ccccc1Cl` [Compound 59], the pest or weed control at 330 ppm with Alternaria brassicae and in the experiment with Pyrenophora teres was no less than 50% in each case.

With `CC(CNC(=O)c1ccccc1C(F)(F)F)c1ncc(Cl)cc1Cl` (stereo not shown) [Compound 60], the pest or weed control at 330 ppm with Alternaria brassicae and in the experiment on Pyrenophora teres was no less than 50% throughout.

With `CC(CNC(=O)c1ccccc1I)c1ncc(Cl)cc1Cl` (stereo not shown) [Compound 61], the pest or weed control at 330 ppm with Alternaria brassicae and in the experiment on Pyrenophora teres was no less than 50% throughout.

In the case of `O=C(NCCc1nc(F)c(Cl)cc1F)c1ccccc1C(F)(F)F` [Compound 62], the pest or weed control at 330 ppm in the experiment on Alternaria brassicae, in the experiment with Botrytis cinerea and with Pyrenophora teres was no less than 50% in each case.

For the compound `O=C(NCCc1nc(F)c(Cl)cc1F)c1ccccc1I` [Compound 63], the pest or weed control at 330 ppm in the experiment on Alternaria brassicae and in the experiment with Pyrenophora teres was no less than 50% throughout.

On to `CC(CNC(=O)c1ccccc1I)c1ccc(Cl)cn1` (stereo not shown) [Compound 65], for which, in the experiment with Pyrenophora teres, the pest or weed control at 330 ppm is no less than 50%.

In the case of `CCNC(=O)C(Cc1ncc(C(F)(F)F)cc1Cl)NC(=O)c1ccccc1` (stereo not shown) [compound 304, N-{1-ethylcarbamoyl-2-[3-chloro-5-(trifluoromethyl)-2-pyridinyl]-ethyl}-benzamide, reference compound], in the experiment on Botrytis cinerea, the “effectiveness on Botrytis cinerea” value is listed as “zero effectiveness”.

For the compound `CCNC(=O)C(Cc1ncc(C(F)(F)F)cc1Cl)NC(=O)c1ccc(Cl)cc1` (stereo not shown) [compound 306, N-{1-ethylcarbamoyl-2-[3-chloro-5-(trifluoromethyl)-2-pyridinyl]ethyl}-4-chlorobenzamide, reference compound], the “effectiveness on Botrytis cinerea” value with Botrytis cinerea is reported as “zero effectiveness”.

Turning to `CCNC(=O)C(Cc1ncc(C(F)(F)F)cc1Cl)NC(=O)c1cccc([N+](=O)[O-])c1` (stereo not shown) [compound 307, N-{1-ethylcarbamoyl-2-[3-chloro-5-(trifluoromethyl)-2-pyridinyl]ethyl}-3-nitrobenzamide, reference compound], in the experiment on Alternaria brassicae, the “effectiveness on Alternaria brassicae” value is recorded as “poor effectiveness”. Also, the “effectiveness on Botrytis cinerea” value in the experiment on Botrytis cinerea was “zero effectiveness”.

`CCNC(=O)C(Cc1ncc(C(F)(F)F)cc1Cl)NC(=O)c1ccccc1Br` (stereo not shown) [compound 310, N-{1-ethylcarbamoyl-2-[3-chloro-5-(trifluoromethyl)-2-pyridinyl]ethyl}-2-bromobenzamide, reference compound]: the “effectiveness on Botrytis cinerea” value with Botrytis cinerea is recorded as “zero effectiveness”.

In the case of `CNC(=O)C(Cc1ncc(C(F)(F)F)cc1Cl)NC(=O)c1ccccc1` (stereo not shown) [compound 314, N-{1-methylcarbamoyl-2-[3-chloro-5-(trifluoromethyl)-2-pyridinyl]ethyl}-benzamide, reference compound], in the experiment with Botrytis cinerea, the “effectiveness on Botrytis cinerea” value is given as “zero effectiveness”.

For the compound `CNC(=O)C(Cc1ncc(C(F)(F)F)cc1Cl)NC(=O)c1ccc(OC)cc1` (stereo not shown) [compound 315, N-{1-methylcarbamoyl-2-[3-chloro-5-(trifluoromethyl)-2-pyridinyl]ethyl}-4-methoxybenzamide, reference compound], the “effectiveness on Botrytis cinerea” value with Botrytis cinerea is given as “zero effectiveness”.

On to `CNC(=O)C(Cc1ncc(C(F)(F)F)cc1Cl)NC(=O)c1ccc(-c2ccccc2)cc1` (stereo not shown) [compound 316, N-{1-methylcarbamoyl-2-[3-chloro-5-(trifluoromethyl)-2-pyridinyl]-ethyl}-4-phenylbenzamide, reference compound], for which the “effectiveness on Alternaria brassicae” value in the experiment on Alternaria brassicae is “poor effectiveness”. In the experiment with Botrytis cinerea, the “effectiveness on Botrytis cinerea” value is on record as “zero effectiveness”.
